Structures are written as SMILES.

The target of the assay is T1, GST-JAK2(808-1132) (Homo sapiens, UniProt O60674).
T1 construct: GST-JAK2(808-1132) is purchased from Invitrogen; purchased Invitrogen (Carlsbad, USA) #4288
T1 sequence (O60674 808-1132): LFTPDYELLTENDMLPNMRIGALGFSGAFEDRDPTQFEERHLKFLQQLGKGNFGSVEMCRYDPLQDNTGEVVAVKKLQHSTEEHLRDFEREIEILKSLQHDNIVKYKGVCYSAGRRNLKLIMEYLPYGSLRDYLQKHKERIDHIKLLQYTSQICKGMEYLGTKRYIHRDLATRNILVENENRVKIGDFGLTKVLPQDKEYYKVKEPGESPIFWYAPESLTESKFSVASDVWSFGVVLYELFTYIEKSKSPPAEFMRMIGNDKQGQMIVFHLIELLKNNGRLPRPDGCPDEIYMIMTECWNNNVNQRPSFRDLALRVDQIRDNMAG
Description: EPK JAK/TYK-kinase family profiling assay (Caliper mobility shift), JAK2. The following applies: Caliper mobility shift assay of Example 187, 20 μM ATP, read-out: IC50 with Test in present Example. The assay is classed as biochemical. The source says: All four kinases of the JAK/TYK-kinase family are used as purified recombinant GST-fusion proteins, containing the active kinase domains. GST-JAK1(866-1154), GST-JAK3(811-1124), and GST-TYK2(888-1187) are expressed and purified by affinity chromatography. GST-JAK2(808-1132) is purchased from Invitrogen (Carlsbad, USA, #4288).
The kinase assays are based on the Caliper mobility shift assay using the LabChip 3000 systems. This technology is similar to capillary electrophoresis and uses charge driven separation of substrate and product in a microfluidic chip.
All kinase reactions are performed in 384 well microtiter plates in a total reaction volume of 18 μl. The assay plates are prepared with 0.1 μl per well of test compound in the appropriate test concentration, as described under the section “preparation of compound dilutions”. The reactions are started by combining 9 μl of substrate mix (consisting of peptide and ATP) with 9 μl of kinase dilution. The reactions are incubated for 60 minutes at 30° C. and stopped by adding 70 μl of stop buffer (100 mM Hepes, 5% DMSO, 0.1% Coating reagent, 10 mM EDTA, 0.015% Brij 35).
Fluorescently labeled synthetic peptides are used as substrates in all reactions. […] Specific assay conditions are described in Table 1:
The terminated reactions are transferred to a Caliper LabChip 3000 reader (Caliper Life Sciences, Mountain View, Calif., USA) and the turnover of each reaction is measured by determining the substrate/product ratio.
Test compounds are dissolved in DMSO (10 mM) and transferred into 1.4 mL flat bottom or V-shaped Matrix tubes carrying a unique 2D matrix chip by individual compound hubs. The numbers of these chips are distinctively linked to the individual compound identification numbers. The stock solutions are stored at −20° C. if not used immediately. For the test procedure the vials are defrosted and identified by a scanner whereby a working sheet is generated that guides the subsequent working steps.
Compound dilutions are made in 96 well plates. This format enabled the assay of maximally 40 individual test compounds at 8 concentrations (single points) including 4 reference compounds. The dilution protocol includes the production of pre-dilution plates, master plates and assay plates:
Pre-dilution plates: 96 polypropylene well plates are used as pre-dilution plates. A total of 4 pre-dilution plates are prepared including 10 test compounds each on the plate positions A1-A10, one standard compound at A11 and one DMSO control at A12. All dilution steps are done on a Hamilton STAR robot (Hamilton, Co., Reno, Nev., USA).
Master plates: 100 μL of individual compound dilutions including standard compound and controls of the 4 “pre-dilution plates” are transferred into a 384 “master plate” including the following concentrations 1,820, […], 182, 54.6, 18.2, 5.46, 1.82 and 0.546 μM, respectively in 90% of DMSO.
Assay plates: Identical assay plates are then prepared by pipetting 100 nL each of compound dilutions of the master plates into 384-well “assay plates”. In the following the compounds are mixed with 9 μL of assays components plus 9 μL enzyme corresponding to a 1:181 dilution steps enabling the final concentration of 10, 3.0, 1.0, 0.3, 0.1, 0.03, 0.01 and 0.003 μM, respectively. The preparation of the master plates are handled by the Matrix PlateMate Plus robot (Thermo Fisher Scientific, Handforth, Cheshire, United Kingdom) and replication of assay plates by the HummingBird robot (Genomic Solutions, Inc., Ann Arbor, Mich., USA).
Take `Cc1cc(-c2cccc3nc(Nc4ccc(C(=O)N5CCCC5)c(C)c4)oc23)ccc1CN1CCOCC1` [Example 110, {2-Methyl-4-[7-(3-methyl-4-morpholin-4-ylmethyl-phenyl)-benzooxazol-2-ylamino]-phenyl}-pyrrolidin-1-yl-methanone]: the IC50 is 88 nM.

As for `CCN1CCN(c2ccc(Nc3nc4cccc(-c5ccc(C(C)(C)C(=O)N6CCOCC6)cc5)c4o3)cc2C)CC1` [Example 111, 2-(4-{2-[4-(4-Ethyl-piperazin-1-yl)-3-methyl-phenylamino]-benzooxazol-7-yl}-phenyl)-2-methyl-1-morpholin-4-yl-propan-1-one], the IC50 is 16.5 nM.

On to `CCN1CCN(c2ccc(Nc3nc4cccc(-c5ccc(S(N)(=O)=O)cc5)c4o3)cc2C)CC1` [Example 112, 4-{2-[4-(4-Ethyl-piperazin-1-yl)-3-methyl-phenylamino]-benzooxazol-7-yl}-benzenesulfonamide], for which the IC50 worked out at 17.5 nM.

On to `CS(=O)(=O)c1ccc(-c2cccc3nc(Nc4ccc(N5CCN(C6CC6)CC5)cc4)oc23)cc1` [Example 113, [4-(4-Cyclopropyl-piperazin-1-yl)-phenyl]-[7-(4-methanesulfonyl-phenyl)-benzooxazol-2-yl]-amine], for which the IC50 worked out at 270 nM.

Regarding `O=S1(=O)CCN(Cc2c(F)cc(-c3cccc4nc(Nc5ccc(N6CCN(C7CC7)CC6)cc5)oc34)cc2F)CC1` [Example 114, [4-(4-Cyclopropyl-piperazin-1-yl)-phenyl]-{7-[4-(1,1-dioxo-1lambda*6*-thiomorpholin-4-ylmethyl)-3,5-difluoro-phenyl]-benzooxazol-2-yl}-amine], the IC50 was determined as 14.1 nM.

In the case of `COCCN1CCN(c2ccc(Nc3nc4cccc(-c5ccc(S(C)(=O)=O)cc5)c4o3)cc2C)CC1` [Example 115, [7-(4-Methanesulfonyl-phenyl)-benzooxazol-2-yl]-{4-[4-(2-methoxy-ethyl)-piperazin-1-yl]-3-methyl-phenyl}-amine], the IC50 stood at 39 nM.

On to `CCN1CCN(c2ccc(Nc3nc4cccc(-c5ccc(C(=O)N6CCS(=O)(=O)CC6)cc5)c4o3)cc2C)CC1` [Example 116, (1,1-Dioxo-1lambda*6*-thiomorpholin-4-yl)-(4-{2-[4-(4-ethyl-piperazin-1-yl)-3-methyl-phenylamino]-benzooxazol-7-yl}-phenyl)-methanone], for which the IC50 is 15 nM.

With `CCN(CC)C(=O)c1ccc(Nc2nc3cccc(-c4cc(F)c(CN5CCN(C(C)=O)CC5)c(F)c4)c3o2)cc1C` [Example 117, 4-{7-[4-(4-Acetyl-piperazin-1-ylmethyl)-3,5-difluoro-phenyl]-benzooxazol-2-ylamino}-N,N-diethyl-2-methyl-benzamide], the 50% inhibitory concentration (IC50) was 29.5 nM.

`CCN(CC)C(=O)c1ccc(Nc2nc3cccc(-c4cc(F)c(CN5CCNCC5)c(F)c4)c3o2)cc1C` [Example 118, 4-[7-(3,5-Difluoro-4-piperazin-1-ylmethyl-phenyl)-benzooxazol-2-ylamino]-N,N-diethyl-2-methyl-benzamide]: the IC50 came to 43 nM.

With `CCN1CCN(Cc2ccc(Nc3nc4cccc(-c5ccc(C(=O)N6CCOCC6)c(F)c5)c4o3)cc2C)CC1` [Example 119, (4-{2-[4-(4-Ethyl-piperazin-1-ylmethyl)-3-methyl-phenylamino]-benzooxazol-7-yl}-2-fluoro-phenyl)-morpholin-4-yl-methanone], the IC50 stood at 19.5 nM.

Regarding `CNC(=O)c1ccc(Nc2nc3cccc(-c4cc(F)c(CN5CCOCC5)c(F)c4)c3o2)cc1C` [Example 120, 4-[7-(3,5-Difluoro-4-morpholin-4-ylmethyl-phenyl)-benzooxazol-2-ylamino]-2,N-dimethyl-benzamide], the IC50 worked out at 39 nM.

For the compound `Cc1cc(Nc2nc3cccc(-c4cc(F)c(CN5CCOCC5)c(F)c4)c3o2)ccc1N1CCN(CCC(F)(F)F)CC1` [Example 121], the IC50 was determined as 210 nM.

For the compound `Cc1cc(Nc2nc3cccc(-c4cc(F)c(CN5CCOCC5)c(F)c4)c3o2)ccc1C(=O)NCCN(C)C` [Example 122, 4-[7-(3,5-Difluoro-4-morpholin-4-ylmethyl-phenyl)-benzooxazol-2-ylamino]-N-(2-dimethylamino-ethyl)-2-methyl-benzamide], the IC50 is 11.1 nM.

Turning to `CCN(CC)C(=O)c1ccc(Nc2nc3cccc(-c4ccc(CC(=O)N5CCS(=O)(=O)CC5)cc4)c3o2)cc1OC` [Example 123, 4-(7-{4-[2-(1,1-Dioxo-1lambda*6*-thiomorpholin-4-yl)-2-oxo-ethyl]-phenyl}-benzooxazol-2-ylamino)-N,N-diethyl-2-methoxy-benzamide], the IC50 came out at 5.4 nM.

For the compound `CS(=O)(=O)c1ccc(Nc2nc3cccc(-c4ccc(CC(=O)N5CCOCC5)cc4)c3o2)cc1` [Example 124, 2-{4-[2-(4-Methanesulfonyl-phenylamino)-benzooxazol-7-yl]-phenyl}-1-morpholin-4-yl-ethanone], the IC50 came to 5.2 nM.

With `O=C1CCCN1c1ccc(Nc2nc3cccc(-c4cc(F)c(CN5CCS(=O)(=O)CC5)c(F)c4)c3o2)cc1` [Example 125, 1-(4-{7-[4-(1,1-Dioxo-1lambda*6*-thiomorpholin-4-ylmethyl)-3,5-difluoro-phenyl]-benzooxazol-2-ylamino}-phenyl)-pyrrolidin-2-one], the IC50 turned out to be 70.5 nM.

On to `O=C1CCCN1c1ccc(Nc2nc3cccc(-c4cc(F)c(CN5CCOCC5)c(F)c4)c3o2)cc1` [Example 126, 1-{4-[7-(3,5-Difluoro-4-morpholin-4-ylmethyl-phenyl)-benzooxazol-2-ylamino]-phenyl}-pyrrolidin-2-one], for which the IC50 turned out to be 165 nM.

Turning to `COc1ccc(Nc2nc3cccc(-c4ccc(C(=O)N5CCOCC5)c(C)c4)c3o2)cc1N1CCN(C)CC1` [Example 127, (4-{2-[4-Methoxy-3-(4-methyl-piperazin-1-yl)-phenylamino]-benzooxazol-7-yl}-2-methyl-phenyl)-morpholin-4-yl-methanone], the IC50 came to 30 nM.

As to `CN1CCN(c2cccc(Nc3nc4cccc(-c5cc(F)c(CN6CCS(=O)(=O)CC6)c(F)c5)c4o3)c2)CC1` [Example 128, {7-[4-(1,1-Dioxo-1lambda*6*-thiomorpholin-4-ylmethyl)-3,5-difluoro-phenyl]-benzooxazol-2-yl}-[3-(4-methyl-piperazin-1-yl)-phenyl]-amine], the IC50 was 19 nM.

In the case of `Cc1cc(-c2cccc3nc(Nc4cccc(N5CCN(C)CC5)c4)oc23)ccc1C(=O)N1CCOCC1` [Example 129, (2-Methyl-4-{2-[3-(4-methyl-piperazin-1-yl)-phenylamino]-benzooxazol-7-yl}-phenyl)-morpholin-4-yl-methanone], the IC50 is 45 nM.

Turning to `COc1ccc(Nc2nc3cccc(-c4cc(F)c(CN5CCS(=O)(=O)CC5)c(F)c4)c3o2)cc1N1CCN(C)CC1` [Example 130, {7-[4-(1,1-Dioxo-1lambda*6*-thiomorpholin-4-ylmethyl)-3,5-difluoro-phenyl]-benzooxazol-2-yl}-[4-methoxy-3-(4-methyl-piperazin-1-yl)-phenyl]-amine], the IC50 is 6.55 nM.

Take `Cc1cc(Nc2nc3cccc(-c4ccc(C(=O)N5CCOCC5)c(F)c4)c3o2)ccc1CN1CCOCC1` [Example 131, {2-Fluoro-4-[2-(3-methyl-4-morpholin-4-ylmethyl-phenylamino)-benzooxazol-7-yl]-phenyl}-morpholin-4-yl-methanone]: the IC50 was found to be 19.5 nM.

With `CC(=O)NC1Cc2ccc(Nc3nc4cccc(-c5ccc(CN6CCOCC6)c(F)c5)c4o3)cc2C1` (stereo not drawn) [Example 132, N-{5-[7-(3-Fluoro-4-morpholin-4-ylmethyl-phenyl)-benzooxazol-2-ylamino]-indan-2-yl}-acetamide], the IC50 is 21 nM.

As for `CC(=O)NC1Cc2ccc(Nc3nc4cccc(-c5ccc(CN6CCS(=O)(=O)CC6)cc5)c4o3)cc2C1` (stereo not drawn) [Example 133, N-(5-{7-[4-(1,1-Dioxo-1lambda*6*-thiomorpholin-4-ylmethyl)-phenyl]-benzooxazol-2-ylamino}-indan-2-yl)-acetamide], the IC50 amounted to 14 nM.

The IC50 is the concentration needed to halve the response being measured.

The values are drawn from US8629168B2, “Benzoxazoles and oxazolopyridines being useful as janus kinases inhibitors” (priority 2006, dated 2014).
